PubChem BioAssay (NCI)
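These data come from cells grown in 96-well plates and exposed to compound for 48 hours at five concentrations. The concentration for full growth arrest is given as TGI.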

Tests used:
Assay in all cases: DTP human tumour cell line panel, 48 h
786-0 renal = test system: 786-0 renal
A498 renal = test system: A498 renal
A549 NSCLC = test system: A549 NSCLC
ACHN renal = test system: ACHN renal
CAKI-1 renal = test system: CAKI-1 renal
CCRF-CEM leukemia = test system: CCRF-CEM leukemia
COLO 205 colon = test system: COLO 205 colon
DLD-1 colon = test system: DLD-1 colon
DMS 114 small cell lung = test system: DMS 114 small cell lung
DMS 273 small cell lung = test system: DMS 273 small cell lung
EKVX NSCLC = test system: EKVX NSCLC
HCC-2998 colon = test system: HCC-2998 colon
HCT-116 colon = test system: HCT-116 colon
HL-60(TB) leukemia = test system: HL-60(TB) leukemia
HOP-92 NSCLC = test system: HOP-92 NSCLC
HT29 colon = test system: HT29 colon
IGROV1 ovarian = test system: IGROV1 ovarian
K-562 leukemia = test system: K-562 leukemia
KM12 colon = test system: KM12 colon
LXFL 529 NSCLC = test system: LXFL 529 NSCLC
M19-MEL melanoma = test system: M19-MEL melanoma
MALME-3M melanoma = test system: MALME-3M melanoma
MOLT-4 leukemia = test system: MOLT-4 leukemia
NCI-H226 lung = test system: NCI-H226 lung
NCI-H23 lung = test system: NCI-H23 lung
NCI-H460 lung = test system: NCI-H460 lung
OVCAR-3 ovarian = test system: OVCAR-3 ovarian
OVCAR-5 ovarian = test system: OVCAR-5 ovarian
OVCAR-8 ovarian = test system: OVCAR-8 ovarian
RPMI-8226 leukemia = test system: RPMI-8226 leukemia
RXF 393 renal = test system: RXF 393 renal
SF-268 CNS = test system: SF-268 CNS
SF-295 CNS = test system: SF-295 CNS
SF-539 CNS = test system: SF-539 CNS
SK-MEL-2 melanoma = test system: SK-MEL-2 melanoma
SK-MEL-28 melanoma = test system: SK-MEL-28 melanoma
SK-MEL-5 melanoma = test system: SK-MEL-5 melanoma
SK-OV-3 ovarian = test system: SK-OV-3 ovarian
SN12C renal = test system: SN12C renal
SNB-19 CNS = test system: SNB-19 CNS
SNB-75 CNS = test system: SNB-75 CNS
SNB-78 CNS = test system: SNB-78 CNS
SR leukemia = test system: SR leukemia
SW-620 colon = test system: SW-620 colon
TK-10 renal = test system: TK-10 renal
U251 CNS = test system: U251 CNS
UACC-257 melanoma = test system: UACC-257 melanoma
UACC-62 melanoma = test system: UACC-62 melanoma
UO-31 renal = test system: UO-31 renal
HCT-15 colon = test system: HCT-15 colon
KM20L2 colon = test system: KM20L2 colon

C=C1C(=O)OC2C1CC[C@H](C)C1(O)C(O)CC(=O)[C@@]21C (some centres not stated)
TGI (786-0 renal): 66.7 µM | TGI (A498 renal): 36 µM | TGI (A549 NSCLC): > 100 µM | TGI (ACHN renal): 43.4 µM | TGI (CAKI-1 renal): 72.7 µM | TGI (CCRF-CEM leukemia): > 10 µM | TGI (COLO 205 colon): 30.8 µM | TGI (DLD-1 colon): 80.7 µM | TGI (DMS 114 small cell lung): 33.9 µM | TGI (DMS 273 small cell lung): 52.3 µM | TGI (EKVX NSCLC): 45.1 µM | TGI (HCC-2998 colon): 46.6 µM | TGI (HCT-116 colon): 33.9 µM | TGI (HL-60(TB) leukemia): 55.2 µM | TGI (HOP-92 NSCLC): 47.7 µM | TGI (HT29 colon): 48.9 µM | TGI (IGROV1 ovarian): 73.4 µM | TGI (K-562 leukemia): 55.6 µM | TGI (KM12 colon): 34.1 µM | TGI (LXFL 529 NSCLC): > 10 µM | TGI (M19-MEL melanoma): 26.8 µM | TGI (MALME-3M melanoma): 39.2 µM | TGI (MOLT-4 leukemia): 42.7 µM | TGI (NCI-H226 lung): 53.3 µM | TGI (NCI-H23 lung): 40.3 µM | TGI (NCI-H460 lung): > 100 µM | TGI (OVCAR-3 ovarian): 47.8 µM | TGI (OVCAR-5 ovarian): 65.4 µM | TGI (OVCAR-8 ovarian): 42.8 µM | TGI (RPMI-8226 leukemia): 94.8 µM | TGI (RXF 393 renal): > 10 µM | TGI (SF-268 CNS): 54.5 µM | TGI (SF-295 CNS): 61.3 µM | TGI (SF-539 CNS): 40.3 µM | TGI (SK-MEL-2 melanoma): 72.1 µM | TGI (SK-MEL-28 melanoma): 27 µM | TGI (SK-MEL-5 melanoma): 31.4 µM | TGI (SK-OV-3 ovarian): 56 µM | TGI (SN12C renal): 45.1 µM | TGI (SNB-19 CNS): > 100 µM | TGI (SNB-75 CNS): 76.2 µM | TGI (SNB-78 CNS): 84.2 µM | TGI (SR leukemia): 47.9 µM | TGI (SW-620 colon): 44 µM | TGI (TK-10 renal): > 10 µM | TGI (U251 CNS): > 100 µM | TGI (UACC-257 melanoma): 32.6 µM | TGI (UACC-62 melanoma): 25.3 µM | TGI (UO-31 renal): 71.2 µM

Cn1c(=O)c2ccccc2c2nc3ccccc3nc21
TGI (786-0 renal): > 100 µM | TGI (A549 NSCLC): > 100 µM | TGI (ACHN renal): > 100 µM | TGI (COLO 205 colon): > 100 µM | TGI (DMS 114 small cell lung): > 100 µM | TGI (DMS 273 small cell lung): > 100 µM | TGI (EKVX NSCLC): > 100 µM | TGI (HCC-2998 colon): > 100 µM | TGI (HCT-116 colon): > 100 µM | TGI (HCT-15 colon): > 100 µM | TGI (HT29 colon): > 100 µM | TGI (IGROV1 ovarian): > 100 µM | TGI (K-562 leukemia): > 100 µM | TGI (KM12 colon): > 100 µM | TGI (KM20L2 colon): > 100 µM | TGI (LXFL 529 NSCLC): > 100 µM | TGI (M19-MEL melanoma): > 100 µM | TGI (MALME-3M melanoma): > 100 µM | TGI (MOLT-4 leukemia): > 100 µM | TGI (NCI-H226 lung): > 100 µM | TGI (NCI-H23 lung): > 100 µM | TGI (OVCAR-5 ovarian): > 100 µM | TGI (OVCAR-8 ovarian): > 100 µM | TGI (RPMI-8226 leukemia): > 100 µM | TGI (RXF 393 renal): > 100 µM | TGI (SF-268 CNS): > 100 µM | TGI (SF-295 CNS): > 100 µM | TGI (SF-539 CNS): > 100 µM | TGI (SK-MEL-2 melanoma): > 100 µM | TGI (SK-MEL-28 melanoma): > 100 µM | TGI (SK-MEL-5 melanoma): > 100 µM | TGI (SK-OV-3 ovarian): > 100 µM | TGI (SN12C renal): > 100 µM | TGI (SNB-19 CNS): > 100 µM | TGI (SNB-75 CNS): 58.9 µM | TGI (SNB-78 CNS): > 100 µM | TGI (SR leukemia): > 100 µM | TGI (SW-620 colon): > 100 µM | TGI (TK-10 renal): > 100 µM | TGI (U251 CNS): > 100 µM | TGI (UACC-257 melanoma): > 100 µM | TGI (UACC-62 melanoma): > 100 µM | TGI (UO-31 renal): > 100 µM
